Test system: pancreatic endocrine progenitors
Assay: Addition of small molecules ISX9 and Wnt-C59 at Stage 5, flow cytometry of β cell marker expression in Stage 6 aggregates
Type: cell-based, human
Settings: added at Stage 5 of the hPSC differentiation protocol (10 μM ISX9, 100 nM Wnt-C59)
From the text: FIG. 5 illustrates establishment of efficient hPSC-islet generation protocol and characterization of hPSC-islets. a, Flow cytometry analysis comparing differentiation efficiencies between planar culture and suspension culture at various stages of the protocol in terms of pancreatic progenitor markers at the end of Stage 4 and β cell markers at the end of Stage 6 (n=5). b, Flow cytometry of β cell marker expression in Stage 6 aggregates without and with addition of small molecules ISX9 and Wnt-C59, individually or in combination at Stage 5, detected at S6D2 (n=4). c, Continuous stage-wise tracking of pancreatic progenitor, endocrine progenitor, and β cell markers by flow cytometry throughout the differentiation protocol (n=3). (d-h) In vitro characterization of stage 6 islet-like aggregates. d, Representative immunostaining of key β cell transcription factors in sectioned Stage 6 aggregates. Scale bar, 50 μm. e, C-peptide secretion of Stage 6 aggregates (n=3) and primary human islets in static glucose stimulation assay (n=2). Glucose stimulation index as indicated above bars. f, Insulin secretion of hPSC-islets in dynamic perifusion assay. g, Electron microscopy depicting ultrastructure of Stage 6 β cell and insulin granules. Scale bar, 2.5 μm. h, Glucagon secretion by hPSC-islets in static glucose stimulation assay. […]

Compound: O=C(NC1CC1)c1cc(-c2cccs2)on1 [ISX9, Isoxazole 9]
- differentiation of pancreatic progenitors / terminal differentiation of pancreatic endocrine progenitors: promoted the terminal differentiation of pancreatic endocrine progenitors

— patent US20250002863A1, “METHOD OF GENERATING FUNCTIONAL ISLETS FROM PLURIPOTENT STEM CELLS” (HANGZHOU REPROGENIX BIOSCIENCE, INC., priority 2021, published 2025)
